According to patent publication US20230096085A1 (priority 2020, published 2023):
Read-outs that look alike come from different tables or passages of the source.

System: rice blast fungus
Assay type: cell-based
Details: for Preventive value: 1,000 μl on oatmeal culture medium, 25° C. for 7 days, elongation length of hyphae vs without treatment

SMILES: COc1nc(-c2ccc3cnccc3n2)nc(F)c1C(F)(F)F [Example 4, 6-fluoro-4-methoxy-2-(2-(1,6-naphthyridyl))-5-trifluoromethylpyrimidine]
- control activity against rice blast fungus (conclusion from the results in Table 1): has a control activity against rice blast fungus
- Preventive value (test solution concentration 1000 ppm): 76
- Preventive value (test solution concentration 2000 ppm): 100
